How the values were obtained:
[1] = system: zebrafish embryos; test: Developmental (phenotypic) zebrafish bioassay; format: in vivo, Danio rerio; conditions: for Final C tested (concentration most representative of the phenotype) / MTC (Maximum Tolerated Concentration) / concentration at which interesting phenotype demonstrated: zebrafish embryos; for Final C tested (concentration most representative of the phenotype): 24 h post fertilization; for MTC (Maximum Tolerated Concentration): compound added 4 h, end 24 h post fertilization; for phenotype of treated embryos compared to control: 24h post-fertilization, FIG. 16
Procedure: Wildtype Danio rerio fish were used for the assay. Once the zebrafish eggs were collected, they were placed in fresh media along with methylene blue, to deter fungal growth. The embryos were sorted and placed in a 96-well plate and the volume was standardized. For the purpose of this screening it was determined that the optimal point to add the compounds was 4 hours post fertilization and the ending point of the assay was 24 hours post fertilization. The delay in growth and the dysmorphologies were monitored and assessed.
A developmental zebrafish assay was utilized to test the activity of the extract, the subsequent fractions, and the isolated compounds. […] The Maximum Tolerated Concentration (MTC) was determined for each compound, alongside the minimum active concentration for each compound. The final tested concentration was determined as the one most representative of the phenotype.

[2] = system: Leishmaniasis; test: Leishmaniasis assay
[3] = system: Plasmodium falciparum; conditions: synthetic Meridianin A; cited from earlier work
[4] = system: A549 (Human lung adenocarcinoma epithelial cell line); conditions: synthetic Meridianin A; cited from earlier work

| SMILES | Final C tested (concentration most representative of the phenotype) [1] | MTC (Maximum Tolerated Concentration) [1] | phenotype of treated embryos compared to control [1] | concentration at which interesting phenotype demonstrated [1] | result of Leishmaniasis assay [2] | growth of P. falciparum [3] | cytotoxicity to A549 [4] |
| --- | --- | --- | --- | --- | --- | --- | --- |
| Nc1nccc(-c2c[nH]c3cc(Br)ccc23)n1 [Meridianin D] | 65 µM | 100 µM |  |  |  |  |  |
| Nc1nccc(-c2c[nH]c3ccccc23)n1 [Meridianin G] | 100 µM | 300 µM |  |  |  |  |  |
| Nc1nccc(-c2c[nH]c3cc(Br)c(Br)cc23)n1 [Meridianin F] | 2 µM | 10 µM | truncation of the anterior-posterior axis | 2 µM |  |  |  |
| Nc1nccc(-c2c[nH]c3cccc(O)c23)n1 [Meridianin A] | 30 µM | 100 µM |  |  | notable | inhibit the growth of P. falciparum | cytotoxic to A549 |
| Nc1nccc(-c2c[nH]c3cc(Br)cc(O)c23)n1 [Meridianin B] | 100 µM | 300 µM |  |  |  |  |  |
| Nc1nccc(-c2c[nH]c3ccc(Br)cc23)n1 [Meridianin C] | 3 µM | 10 µM | truncation of the anterior-posterior axis | 3 µM |  |  |  |
| Nc1nccc(C2(O)C(=O)Nc3ccccc32)n1 (stereo not shown) [Australindolone A] | 300 µM | 1000 µM |  |  |  |  |  |
| Nc1nccc(-c2c[nH]c3c(Br)ccc(O)c23)n1 [Meridianin E] | 10 µM | 100 µM |  |  |  |  |  |
| Nc1nccc(-c2c[nH]c3c(Br)cc(Br)c(O)c23)n1 [Meridianin H] | 60 µM | 100 µM |  |  |  |  |  |

Reference: patent publication US12233064B1, “Antarctic tunicate Synoicum species-derived alkaloids and methods of treatment” (University of South Florida, priority 2019, dated 2025)
